This passage reports melting point results from a melting point compilation (Tetko et al.; mined from patent text by program, amines drawn as free bases though some values may be those of a salt).

A value given as a limit tells only on which side of the number the result lay.

Regarding `CCCn1c(-c2c(Cl)cccc2Cl)nc(-c2ccncc2)c1-c1ccc(Cl)cc1`, the melting point lay within 220 to 222 °C.

`CC1(C)CC(NC(=O)Nc2ccccc2)CC(C)(C)N1CC#N` registered a melting point of 218 to 220 °C.

`COc1cc(NC(C)=O)c(Cl)cc1C(=O)NN1CCN(Cc2cccs2)CC1` showed a melting point of 178 to 181 °C.

For `COc1cc(C)nc(NC(=O)NS(=O)(=O)Cc2ccccc2-c2nnc(SC)o2)n1`, the melting point was in the range of 194 to 196 °C.

The compound `CCNc1nc2n(n1)Cc1ccccc1-2` gave a melting point of 150 to 152 °C.

Turning to `O=C(O)c1ccccc1C(=O)c1ccccc1Cl`, the melting point is 112 to 116 °C.

For the compound `CCN(CC)CCOc1ccc(Nc2ncc3c(n2)N(C)C(=O)N(Cc2ccc(OC)cc2)C3)cc1`, the melting point was 112 °C.

In the case of `CC(C)(C)OC(=O)N1CC[C@H](c2ccc3c(c2)OCO3)[C@@H](O)C1` (racemic), the melting point amounted to 112 °C.

`COC(=O)C1Oc2ccccc2C(C)c2cc(Cl)ccc2O1` (stereo unspecified) returned a melting point of 124 to 136 °C.

`Cc1nc2c3c(ccn2c1C)C(OCCO)C(O)C(c1ccccc1)N3` (stereo unspecified) came in with a melting point of 107 to 109 °C.

`c1ccc(-c2nc(N3CCN(c4ccccn4)CC3)c3ccccc3n2)cc1`: the melting point was 164 to 166 °C.

For the compound `O=C1NC(=Cc2ccccc2F)C(=O)N1c1cc(F)ccc1F`, the melting point fell in the range of 180 to 183 °C.

Turning to `Cc1ccccc1C(=NC(=Nc1ccccc1)C1(C)CCCCC1)Nc1ccc(F)cc1`, the melting point lay in the range of 210 to 211 °C.

In turn, `Nc1cc(Oc2ccc(NC(=O)Nc3ccc(-c4ccncc4)c(C(F)(F)F)c3)cc2)ncn1` showed a melting point of 131 to 135 °C.

In the case of `O=C1NCC(c2cccc(C(F)(F)F)c2)C1c1cn2c3c(cccc13)CCC2` (stereo unspecified), the melting point lay within 82 to 85 °C.

`CCCCCCCCCCNC(=O)[C@@H]1C[C@H]1c1ccc([N+](=O)[O-])cc1` (relative stereo) displayed a melting point of 127 to 129 °C.

As for `Cc1oc(-c2ccccc2)nc1COc1ccc(CON=C(CCCCCC(=O)O)c2ccccc2)cc1`, the melting point was in the range of 84 to 85 °C.

In the case of `COc1ccc(/C=C/c2nc3c(c(=O)n(C)c(=O)n3C)n2C)c(OC)c1C`, the melting point was in the range of 253 to 254 °C.

Consider `CC1(C)CC2(CC(C)(C)N1O)OC1(CCCCCCCCCCC1)NC2=O`, for which the melting point lay in the range of 236 to 238 °C.

`CCOC(=O)C1CCN(c2cc(-c3ccccc3)nc3ccc(F)cc23)CC1` showed a melting point of 120 to 124 °C.

Take `CS(=O)(=O)C(Cl)=C(Cl)C#N`: the melting point came to 100 °C.

The compound `CCNC(=O)n1nc(Oc2ccc([N+](=O)[O-])c(C(F)(F)F)c2)cc1C` returned a melting point of 95 to 97 °C.

Regarding `O=C1NC(=O)C(Sc2ccc(F)cc2)S1` (stereo unspecified), the melting point lay within 99 to 100 °C.

With `Cc1cccc(CC(=O)c2ccnc(-c3ccc(OC(F)(F)F)cc3)c2)n1`, the melting point was 60 °C.

Compound `CCCc1c(OCCCOc2ccc(Cl)c(Cl)c2)ccc2c1OC(CCC(=O)O)(CCC(=O)O)CC2=O` returned a melting point of 136 to 137 °C.

On to `CCCCN1CC=C(c2cccc3[nH]ccc23)CC1`, for which the melting point was determined as 91 °C.

`O=C(NC(Cc1ccc(OCc2ccccc2)cc1)C(=O)O)c1cn2cccc(OCc3ccc(Cl)cc3)c2n1` (stereo unspecified) displayed a melting point of 210 °C.

`COc1ccc(C(=O)Nc2c(C)c(C)c3c(c2C)C(c2ccc(C)cc2)C(C)(C)O3)cc1OC` (stereo unspecified) returned a melting point of 169 to 171 °C.

`COCc1cccc2oc(C(=O)Nc3ccc(-c4ccc(S(=O)(=O)N(C)C(C(=O)O)C(C)C)cc4)cc3)c(C)c12` (stereo unspecified) gave a melting point of 144 to 146 °C.

On to `CCCN1C(=O)N(CCC)C(=O)C2(CC=C3C(CCC4=Cc5c(cnn5-c5ccc(F)cc5)CC43C)O2)C1=O` (stereo unspecified), for which the melting point lay in the range of 81 to 82 °C.

The compound `COc1ccc(C(=O)Nc2cccnc2)cc1NC(=S)Nc1ccc(Cl)c(Cl)c1` returned a melting point of 179 to 180 °C.

Compound `Cc1ccc(-c2nn3cccnc3c2CC(=O)N(C)C)cc1` registered a melting point of 164 to 165 °C.

In turn, `NS(=O)(=O)c1ccc(F)c(F)c1` had a melting point of 89 to 91 °C.

`S=C(Nc1ccc(Sc2ccc3ccccc3n2)cc1)Nc1ccc(Cl)c(Cl)c1`: the melting point was 125 to 126 °C.

`COc1ccc(OCCCCCCc2c(C)n[nH]c2C)c(Cl)c1` had a melting point of 150 to 151 °C.

In the case of `CC(C)n1nc(CS(C)=O)cc1O` (stereo unspecified), the melting point was determined as 69 °C.

Regarding `CN(C)CCCOc1ccc(-c2nnc(Cc3ccc(Oc4ccccc4)cc3)o2)cc1`, the melting point lay within 156 to 158 °C.

Consider `CCOC(=O)CC(=O)Nc1cc(F)cc(F)c1`, for which the melting point was 42 to 45 °C.

Turning to `CCCCCCCCCCCCCCCNC(=O)OCCOCCOC(=O)N(Cc1ccccn1)C(C)=O`, the melting point is 53 to 55 °C.

For `Nc1ccc(Sc2cc(Cl)cc(Cl)c2)c(Cl)c1`, the melting point lay within 157 to 160 °C.

Compound `CC1c2cc(O)ccc2-c2c1cc1cc(O)ccc1c2Cl` (stereo unspecified) yielded a melting point of 215 to 220 °C.

Take `CN(c1ccc(S(C)(=O)=O)cc1)S(=O)(=O)c1cccc(NC(=O)c2ccc(S(C)(=O)=O)cc2)c1`: the melting point was in the range of 213 to 215 °C.

With `O=C(O)C1CSC(c2ccncc2)N1` (stereo unspecified), the melting point was in the range of 171 to 173 °C.

`CC(=O)N[C@@H]1CN2C(=O)N(c3cc(Cl)nc(Cl)c3)C(=O)[C@@]2(Cc2ccc(OC(F)(F)F)cc2)C1` gave a melting point of 127 °C.

The compound `CCNC(=O)n1c([Si](C)(C)C)cc2ccccc21` returned a melting point of 96 to 99 °C.

Regarding `COc1cccc2c1cc(C(=O)NCCc1ccncc1)n2Cc1cccc(C(=N)NO)c1`, the melting point is 220 to 222 °C.

The compound `O=C(NC12CC3CC(CC(C3)C1)C2)c1cccc2c1OCCO2` came in with a melting point of 137 °C.

Compound `CC1=NC(C)=C(c2ccc(Oc3ccc(S(C)=O)cc3)cc2)C(=O)C1Br` (stereo unspecified) gave a melting point of 262 to 263 °C.

Take `COc1cc(C(=O)CSC)ccc1OC(C)=O`: the melting point amounted to 70.4 °C.

As to `CCOCc1nc2c(N)nc3cc(S(C)(=O)=O)ccc3c2n1CCCOC`, the melting point is 166 to 168 °C.

In the case of `COc1cc(C(=O)N2CCC(CCN3CCC(Nc4nc5ccccc5n4Cc4nccn4Cc4ccccc4)CC3)(c3ccc(F)cc3)C2)cc(OC)c1OC` (stereo unspecified), the melting point was in the range of 95 to 100 °C.

`CCOC(=O)C1=C(C)Nc2n[nH]cc2C1c1ccccc1C(F)(F)F` (stereo unspecified) gave a melting point of 259 to 262 °C.

Regarding `CC(=O)Nc1c(C)cc(OC(C)=O)c(C)c1C`, the melting point is 174 to 175 °C.

With `Fc1ccccc1C1=NCC(=S)Nc2ccc(I)cc21`, the melting point lay within 242 to 244 °C.

Compound `CNC(=O)Nc1cccc(C(=S)NC(C)C)c1` registered a melting point of 175 to 178 °C.

As for `CC(C)(C)OC(=O)NCc1ccc([N+](=O)[O-])cc1`, the melting point fell in the range of 110 to 111 °C.

Take `COc1c(Cl)ccc(-c2nc(C(=O)OCc3ccc(Cl)cc3)c(Cl)c(N)c2F)c1F`: the melting point worked out at 143 °C.

`Cc1ccc(N2CCN(Cc3n[nH]c4c(F)cccc34)CC2)cc1`: the melting point fell in the range of 176 to 177 °C.

`CC(C)N1C(=O)NC(NC2CC2)NC1=O`: the melting point fell in the range of 237 to 239 °C.

In the case of `COc1ccc2c(c1)C(=O)C1CCCCN1C2` (stereo unspecified), the melting point is 117 to 119 °C.

`FC(F)(F)c1ccc2c(c1)nc(/C=C/c1ccccc1)n2-c1ccccn1`: the melting point lay within 144 to 145 °C.

With `COc1ccc(C(=O)c2ccccc2Cl)c(Cl)c1Cl`, the melting point fell in the range of 117 to 120 °C.

`O=C(C=Cc1ccccc1)Oc1ccc2ccccc2c1` came in with a melting point of 99 to 101 °C.

For the compound `O=C(O)c1cc(-c2ccc(Br)cc2)c(=O)n(Cc2ccc(Cl)cc2Cl)c1`, the melting point lay within 137 to 139 °C.

Compound `Cc1c(O)ccc2c(=O)cc(N3CCOCC3)oc12` yielded a melting point of over 250 °C.

Turning to `CNC(=O)c1cc2c(OC[C@@H](O)CN3CCC(c4ccc5ccccc5c4)CC3)cccc2n1C`, the melting point lay within 180 to 183 °C.

`CS(=O)(=O)c1ccc(-c2[nH]nc(OC3CCCC3=O)c2-c2ccc(F)cc2)cc1` (stereo unspecified) returned a melting point of 96 to 99 °C.

As for `CCCN1CCC(Cc2ccc3c(c2)c(Cc2ccc(C(=O)O)cc2OC)cn3C)C1=O` (stereo unspecified), the melting point lay within 202 to 212 °C.

Consider `CCCS(=O)(=O)n1ccc2ccc(N=C3NCCN3)cc21`, for which the melting point was 213 °C.

The compound `CC(=O)NCc1ccc(-c2ccc([N+](=O)[O-])cc2)o1` came in with a melting point of 149 to 151 °C.

`OCCN1CCN(c2ccc3nc(-c4ccc(Cl)s4)c(-c4ccncc4)n3n2)CC1` yielded a melting point of 216 to 218 °C.

Turning to `O=C(O)c1cc(S(=O)(=O)O)c2cccnc2c1O`, the melting point lay within 289 to 291 °C.

Regarding `NC(=O)NC[C@@H]1CCCc2cc(S(=O)(=O)c3cccc(F)c3)cc(F)c21`, the melting point worked out at 194 °C.

Turning to `CC(C)(C)OCC(NC(=O)c1ccccc1SSc1ccccc1C(=O)NC(COC(C)(C)C)C(=O)O)C(=O)O` (stereo unspecified), the melting point was 206 to 207 °C.

In turn, `O=C1COc2ccc(C3=Cc4cccnc4SC3c3ccccc3)cc2N1` (stereo unspecified) registered a melting point of 242 to 244 °C.

As for `O=C(O)C(CCCN1C(=O)c2ccccc2S1(=O)=O)NS(=O)(=O)c1ccc(-c2ccc(Cl)cc2)cc1` (stereo unspecified), the melting point is 177 to 179 °C.

The compound `CCOC(=O)c1cc(C)nc2c(O)cccc12` registered a melting point of 71.8 °C.

For the compound `O=C1[C@H]2CCC[C@H]2N(C(=O)CBr)c2ccccc2N1CCCc1ccccc1` (relative stereo), the melting point was in the range of 130 to 132 °C.

Take `CC(C)[C@H](NC(=O)OCc1ccccc1)C(=O)OCc1nc2c(N)nc3ccccc3c2n1CCCCNS(C)(=O)=O`: the melting point was 99 to 100 °C.

In the case of `COc1ccc2ccc(N3C(=O)C4=C(SCC(OC)CS4)C3OC(=O)N3CCN(C)CC3)nc2n1` (stereo unspecified), the melting point turned out to be 215 °C.

In turn, `CC(C)C(C)NC1=NS(=O)(=O)c2cc(Cl)c(Cl)cc2N1` (stereo unspecified) yielded a melting point of 242 to 250 °C.

The compound `CC(=O)Oc1ccc(CN2C(=O)C(=O)c3ccccc32)cc1` returned a melting point of 159 to 161 °C.

As for `N#CN=C(Nc1cccc(F)c1)NC(NC(=O)c1ccc(Cl)cc1)c1ccsc1` (stereo unspecified), the melting point lay within 166 to 168 °C.

As for `O=C(O)c1ccc(C2=NCCS2)nc1`, the melting point is 234 to 235 °C.

`CCc1ccc(N=c2sc3ncccc3c(=O)n2CC)cc1`: the melting point was in the range of 148 to 149 °C.

With `FC(F)(F)c1cc(Oc2cc(Oc3ccc(Cl)c(C(F)(F)F)c3)ncn2)ccc1Cl`, the melting point turned out to be 111 °C.
